PMC12606464, “Investigating NFE2L1 activators for targeted protein aggregate clearance: a follow-up study” (RSC Medicinal Chemistry, 2025)
Like-named read-outs stand apart in the source and are kept apart here.

Tests used:
Assay type in all cases: cell-based, human
SNCA-EGFP = SNCA-EGFP degradation in SH-SY5Y cells
Method: This reporter is prone to aggregation because of its slow protein turnover. To assess compound efficacy, we measured the fluorescence signal of GFP-tagged synuclein within aggregates.
The GFP fluorescence signal was then normalized to that of the DMSO control and the cell number. The experiment was performed in at least five biological replicates. Statistical analysis was performed using paired t-tests with Holm–Šídák correction for multiple comparisons (α = […]
SH-SY5Y cells stably expressing SNCA-EGFP were seeded on a plate and allowed to […]
tadalafil (5 µM), or RUN compounds at a concentration of 1 µM or treated with an equivalent volume of DMSO dissolved in buffer as a vehicle control. The treatment was performed for 16 hours and then fluorescence was measured. The GFP signal intensity was normalized to both the DMSO control and the cell count.

[1] = test system: NFE2L1-dependent gene expression; test: Quantitative RT-PCR of NFE2L1-dependent genes in HEK293 cells; conditions: 7.5 μM, 16 h; for DNAJA1 mRNA, geometric mean (treatment) / HSPA1A mRNA, geometric mean (treatment) / NQO1 mRNA, geometric mean (treatment) / PSMC4 mRNA, geometric mean (treatment) / PSMD12 mRNA, geometric mean (treatment) / SQSTM1 mRNA, geometric mean (treatment): HEK293, normalized to RPLP0, DMSO control = 1; for DNAJA1 mRNA, geometric mean of ratios / HSPA1A mRNA, geometric mean of ratios / NQO1 mRNA, geometric mean of ratios / PSMC4 mRNA, geometric mean of ratios / PSMD12 mRNA, geometric mean of ratios / SQSTM1 mRNA, geometric mean of ratios: treatment/control, ratio paired t test, HEK293
Method: NFE2L1 enhances the transcription of genes encoding proteasome subunits and molecular chaperones such as heat shock proteins (HSPs). To evaluate whether this effect is elicited by RUN compounds, we performed quantitative real-time PCR (RT-qPCR) analysis in HEK293 cells treated with selected RUN compounds (Fig. 2A).[28,53–55]
Fig. 2 (A) qPCRs of HEK293 cells treated with RUN compounds (7.5 μM) for 16 hours. The extracted RNA was reverse transcribed into cDNA and utilized for RT-qPCR (primers are listed in the SI, Table S1); the mRNA levels of RPLP0 were used for normalization. The experiment was performed in three biological replicates (n = 3). (B) Immunoblot analysis of proteins NFE2L1/TCF11/NRF1, SQSTM1/p62, LC3, NQO1 and HSPA1A/HSP70-1 in HEK293 cells after 16 h treatment with 7.5 μM RUN compounds. The protein levels were quantified by measuring the integrated fluorescence of the corresponding protein bands and normalized to the β-actin load. The full-length (F) and cleaved (C) forms of NFE2L1 were analyzed together. The experiment was performed in four biological replicates (n = 4) except for NFE2L1 (n = 3). (A and B) Results of RUN compounds were compared to the DMSO control using ratio paired t-tests corrected for multiple comparisons with Holm–Šídák's method (α = 0.05). *p < 0.05, **p < 0.01. Detailed results of the analysis are shown in SI Tables S5 and S6. […]
HEK-293 cells were seeded into 12 -well plates and allowed to adhere overnight under standard culture conditions. On the following day, cells were treated with the indicated test compounds or DMSO vehicle control for 16 h. After treatment, cells were lysed directly in the wells, and the resulting lysates were collected for downstream RNA extraction. RNA was extracted using the RNeasy® Plus Micro Kit according to the manufacturer’s instructions. Complementary DNA (cDNA) was synthesized from RNA using either t he TATAA GrandScript cDNA Supermix (TATAA Biocenter) or the QuantiTect® Reverse Transcription Kit (Qiagen), following the respective protocols. Quantitative RT -PCR was performed on a LightCycler® 480 instrument (Roche Life Science) using the TATAA SYBR® Gr andMaster® Mix (TATAA […]
Biocenter). Gene expression levels were normalized to RPLP0, and relative expression was calculated using the ΔΔCt method. Data were expressed as fold change relative to the corresponding DMSO control. Statistical analysis of changes in gene expression was performed w ith a ratio paired t-test corrected for multiple comparisons using Holm-Šídák's method (α = 0.05) in GraphPad Prism (v 10.6.1).
Table S1. Sequences of primer pairs used in the qRT -PCR analysis of gene expression.

IRE1/XBP1s = test: XBP1 endoplasmic reticulum stress reporter assay (CMV-XBP-GLuc); conditions: Figure S5; for Mean diff, MG132 vs. RUN compound (log2-transformed values) / Mean diff, DMSO vs. treatment (log2-transformed values): Dunnett's multiple comparisons test; for Mean 2 (mean of log2-transformed values, treatment; DMSO = 0): N = 3
Description: Next, we investigated whether the selected RUN compounds activate the NFE2L1 transcriptional program without triggering the unfolded protein response (UPR), a crucial cellular process induced by the accumulation of unfolded proteins in the endoplasmic reticulum (ER), potentially leading to ER stress. To monitor this, an alternative reporter was used to assess the activation of IRE1/XBP1s.[47] IRE1 is a bifunctional serine/threonine kinase and endoribonuclease embedded in the ER membrane, playing a central role in UPR signaling. Its RNase activity facilitates the splicing of X-box binding protein 1 (XBP1) mRNA. The spliced XBP1 acts as a transcription factor, promoting the re-establishment of ER homeostasis by upregulating genes involved in the ER-associated degradation (ERAD) pathway.[48–50] The reporter contains Gaussia luciferase positioned out of frame downstream of the XBP1 splice site, ensuring that active luciferase translation occurs only in the presence of ER stress.[51,52] Cells transfected with this reporter were treated with RUN compounds at 1, 5, and 10 μM, and luciferase activity was measured.
Figure S5: Impact of RUN compounds on ER stress-induced activation of the XBP1 reporter.
HEK293 cells were transfected with the CMV-XBP-GLuc reporter plasmid and allowed to stabilize overnight. Following stabilization, the cells were treated with MG132 or various concentrations of the test compounds (1, 2, 3, 5, 7.5, and 10 µM) for 16 hours. The Gaussia luciferase signal, which reflects XBP1 mRNA splicing, was adjusted based on cell viability as measured by the alamarBlue assay. Data are represented as Geomean ± GeoSD of three independent experiments ( n = 3. Statistical comparison of MG132 and RUN compounds vs DMSO and RUN compounds vs MG132 was performed on log2-transformed values using two-way repeated-measures ANOVA with Geisser –Greenhouse correction, followed by Dunnett’s multiple comparisons test with individual variances computed for each comparison. Results of the analysis are shown in Supplementary Table S15. […]
GraphPad Prism (v 10.6.1).
2.8 XBP1-endoplasmic reticulum (ER) stress reporter assay
HEK293 cells were seeded in 6-well plates and incubated for 24 hours before being transfected with a plasmid containing the CMV-XBP-Gluc reporter using Lipofectamine 2000.(4) After 6 hours, the transfected cells were subsequently transferred to 384-well plates, stabilized overnight, and treated with the proteasome inhibitor and ER stress inducer MG132 and/or various concentrations of RUN compounds (1, 5, and 10 µM) or vehicle (DMSO) for 16 hours. Luciferase activity was normalized to cell viability, which was assessed using the alamarBlue assay. The results are expressed as the fold change compared with the DMSO control, with the experiment conducted in biological triplicate. […]

[2] = SH-SY5Y, SNCA-EGFP degron, Figure S7

Row | SMILES | Geometric mean, Treatment (Control = 100) (SNCA-EGFP; [2]) | DNAJA1 mRNA, geometric mean (treatment) [1] | NQO1 mRNA, geometric mean (treatment) [1] | PSMC4 mRNA, geometric mean (treatment) [1] | PSMD12 mRNA, geometric mean (treatment) [1] | SQSTM1 mRNA, geometric mean (treatment) [1] | DNAJA1 mRNA, geometric mean of ratios [1] | HSPA1A mRNA, geometric mean of ratios [1] | NQO1 mRNA, geometric mean of ratios [1] | PSMC4 mRNA, geometric mean of ratios [1] | PSMD12 mRNA, geometric mean of ratios [1] | SQSTM1 mRNA, geometric mean of ratios [1] | Mean diff, MG132 vs. RUN compound (log2-transformed values) (IRE1/XBP1s; 1 µM) | Mean 2 (mean of log2-transformed values, treatment; DMSO = 0) (IRE1/XBP1s; 1 µM) | Mean diff, MG132 vs. RUN compound (log2-transformed values) (IRE1/XBP1s; 5 µM) | Mean 2 (mean of log2-transformed values, treatment; DMSO = 0) (IRE1/XBP1s; 5 µM) | Mean diff, MG132 vs. RUN compound (log2-transformed values) (IRE1/XBP1s; 10 uM) | Mean 2 (mean of log2-transformed values, treatment; DMSO = 0) (IRE1/XBP1s; 10 uM) | Mean diff, DMSO vs. treatment (log2-transformed values) (IRE1/XBP1s; DMSO vs. 1 µM) | Mean diff, DMSO vs. treatment (log2-transformed values) (IRE1/XBP1s; DMSO vs. 5 µM) | other results
1 | COc1ccc(/C=C2\CC(N)C/C(=C\c3ccc(OC)c(OC)c3)C2=O)cc1OC (centres unmarked) [RUN-81] | 88.47 | 3.68 | 2.23 | 4.76 | 3.37 | 4.15 | 3.68 | 8.57 | 2.23 | 4.76 | 3.37 | 4.15 | 2.079 | 0.02701 | 2.509 | 0.216 | 3.74 | 0.2168 | -0.02701 | -0.216 | Geometric mean of ratios (paired t tests, Treatment vs Control = 100) (SNCA-EGFP; [2]): -11.53; HSPA1A mRNA, geometric mean (treatment) [1]: 8.57; Mean diff, DMSO vs. treatment (log2-transformed values) (IRE1/XBP1s; DMSO vs. 10 uM): -0.2168
2 | COc1ccc(/C=C2\CC(NC(=O)C3CCCC3)C/C(=C\c3ccc(OC)c(OC)c3)C2=O)cc1OC (centres unmarked) [RUN-89] | 88.39 | 7.60 | 2.73 | 2.21 | 5.14 | 5.22 | 7.60 | 8.85 | 2.73 | 2.21 | 5.14 | 5.22 | 1.977 | 0.1287 | 1.754 | 0.9716 | 2.213 | 1.744 | -0.1287 | -0.9716 | Geometric mean of ratios (paired t tests, Treatment vs Control = 100) (SNCA-EGFP): -11.61; HSPA1A mRNA, geometric mean (treatment) [1]: 8.85; Mean diff, DMSO vs. treatment (log2-transformed values) (IRE1/XBP1s; DMSO vs. 10 uM): -1.744
3 | COc1ccc(/C=C2\CC(NC(=O)c3ccccn3)C/C(=C\c3ccc(OC)c(OC)c3)C2=O)cc1OC (centres unmarked) [RUN-94] | 92.33 | 6.57 | 2.85 | 1.37 | 4.22 | 6.10 | 6.57 | 8.20 | 2.85 | 1.37 | 4.22 | 6.10 | 2.183 | -0.07708 | 1.118 | 1.607 | 2.807 | 1.15 | 0.07708 | -1.607 | Geometric mean of ratios (paired t tests, Treatment vs Control = 100) (SNCA-EGFP; [2]): -7.67; Mean diff, DMSO vs. treatment (log2-transformed values) (IRE1/XBP1s; DMSO vs. 10 uM): -1.15
